Patent US9074016B2, “G protein-related kinase mutants in essential hypertension” (priority 1998, dated 2015)
“Also recorded” adds a separate entry of the source.

What was measured:
[1] = system: GRK activity in renal proximal tubule cells; test: GRK activity (phosphorylation of rhodopsin) in extracts of renal proximal tubule cells; assay type: cell-based, human
Text: Human kidneys were obtained as fresh surgical specimens from patients who had unilateral nephrectomy due to renal carcinoma. The patient records of the subjects were reviewed and classified into those with either normal blood pressure (n=9) or essential hypertension (n=14). Subjects with systolic blood pressures less than 140 mm Hg and diastolic blood pressures less than 90 mm Hg were considered normotensive. Subjects with systolic blood pressures equal to or greater than 140 mm Hg or diastolic blood pressures equal to or greater than 90 mm Hg and/or on antihypertensive medications were considered hypertensive. […]
GRK activity was measured according to Benovic, Methods Enzymol. […] The gels were subjected to autoradiography, and the phosphorylated rhodopsin was quantified using both densitometry and radioactive counting of the excised bands at the appropriate size. GRK activity was also measured in the presence or absence of a GRK isoform antibody.

[2] = system: D1 receptor / adenylyl cyclase coupling in renal proximal tubule cells; test: cAMP accumulation in renal proximal tubule cells; assay type: cell-based, human; conditions: normotensive versus hypertensive subjects
Description: Cultures of renal proximal tubule cells from histologically-verified normal kidney sections (5×10^5 cells/well in 24 well plastic plates coated with 0.075% Type I collagen) were incubated at 37° C. in […] and grown in a serum-free medium consisting of a 1:1 mixture of Dulbecco's Modified Eagle's medium and Ham's F12 medium supplemented with selenium (5 ng/ml), insulin (5 μg/ml), transferrin (5 μg/ml), hydrocortisone (36 ng/ml), triiodothyronine (4 pg/ml), and epidermal growth factor (10 ng/ml). When sub-confluent (90-95%), the cells were sub-cultured (passages 6-8) for use in experimental protocols using trypsin-EDTA (0.05%, 0.02%). The culture conditions are conducive for growth of human renal proximal tubules that retain characteristics of renal proximal tubule cells, Sanada, et al., J. Invest. Med. 45:277 A (1997).
The cells were washed twice with Dulbecco's phosphate buffered saline (D-PBS), after which 1 mM 3-isobutyl-1-methyl-xanthine was added to each well. […] Then, the cells were washed twice with D-PBS and frozen at −80° C. and the cells were further lysed with 0.1N HCl. cAMP concentration was measured by radioimmunoassay. […] Protein concentration was measured with the BCA protein assay kit (Pierce Chem. Co., Rockford, Ill.). […]

D1 receptor [3] = molecular target: T1, D1 receptor (Homo sapiens, UniProt P21728); test: Serine phosphorylation of D1 receptor (immunoprecipitation / anti-phosphoserine immunoblot) in renal proximal tubule cells; assay type: cell-based; conditions: normotensive subjects
T1 construct: endogenous in cells; host or cells: renal proximal tubule cells in culture from normotensive and hypertensive human subjects
Description: Proximal tubule cells were incubated with vehicle, fenoldopam, sense, scrambled or antisense propyne/phosphorothioate oligonucleotides (5 nM) as described above. The membranes were lyzed with ice cold lysis buffer (PBS with 1% NP40, 0.5% sodium deoxycholate, 0.1% SDS, 1 mM EDTA, 1 mM EGTA, 1 mM sodium vanadate, 1 mM NaF, 1 mM PMSF, 10 μg/ml aprotinin and 10 μg/ml leupeptin). The lysates were incubated with IgG-purified anti D1 receptor antibody on ice for 1 hr and protein-A agarose for 12 hrs with rocking at 4° C. The proteins separated by SDS-polyacrylamide gel electrophoresis were electrophoretically transferred onto nitrocellulose membranes. The transblot sheets blocked with 5-10% nonfat dry milk in 10 mM Tris-HCl, pH 7.5, 150 mM NaCl, and 0.1% Tween-20 were incubated with diluted affinity-purified polyclonal anti-phosphoserine antibody (Zymed Lab, San Francisco, Calif.); Sanada, et al., supra. In some cases, the cells were labeled with ^32P and immunoprecipitated with anti D1 receptor antibody. The autoradiograms and immunoblots, visualized with ECL system (Amersham, Arlington Heights, Il) were quantified by densitometry. Sanada, et al., supra.

D1 receptor [4] = test: cAMP production in CHO cells transfected with D1 receptor and GRK4γ; assay type: cell-based
Description: The cells were washed twice with Dulbecco's phosphate buffered saline (D-PBS), after which 1 mM 3-isobutyl-1-methyl-xanthine was added to each well. The cells were incubated at 37° C. for 30 minutes with or without drugs: dopamine and the D1-like receptor agonist, fenoldopam, the D1-like receptor antagonist, SCH23390 (Research Biochemicals International, Natick, Mass.), and forskolin (Sigma Chemical Co., St. Louis, Mo.). Then, the cells were washed twice with D-PBS and frozen at −80° C. and the cells were further lysed with 0.1N HCl. cAMP concentration was measured by radioimmunoassay. […] Protein concentration was measured with the BCA protein assay kit (Pierce Chem. Co., Rockford, Ill.).
The rat D1 (rD1) or human D1 (hD1) receptor cDNA was subcloned in the expression vector pPUR (Clontech, Palo Alto, Calif.) or pcDNA3.1/Zeo (Invitrogen, Carlsbad, Calif.), respectively, between EcoRland XbaI sites. The resulting constructs were used to stably transfect CHO cells expressing the pTet-Off regulator plasmid (Clontech, Palo Alto, Calif.) using calcium phosphate. […] GRK4γ and GRK4δcDNAs, obtained from RT/PCR of mRNA from human kidney cortex were subcloned into a pTet-Off response plasmid (pTRE-rD1 or pTRE-hD1 and pTK-Hyg mixed in a 20:1 ratio, respectively) (Clontech, Palo Alto, Calif.).
GRK4δ was used for comparison.

T1 sequence (P21728 whole entry): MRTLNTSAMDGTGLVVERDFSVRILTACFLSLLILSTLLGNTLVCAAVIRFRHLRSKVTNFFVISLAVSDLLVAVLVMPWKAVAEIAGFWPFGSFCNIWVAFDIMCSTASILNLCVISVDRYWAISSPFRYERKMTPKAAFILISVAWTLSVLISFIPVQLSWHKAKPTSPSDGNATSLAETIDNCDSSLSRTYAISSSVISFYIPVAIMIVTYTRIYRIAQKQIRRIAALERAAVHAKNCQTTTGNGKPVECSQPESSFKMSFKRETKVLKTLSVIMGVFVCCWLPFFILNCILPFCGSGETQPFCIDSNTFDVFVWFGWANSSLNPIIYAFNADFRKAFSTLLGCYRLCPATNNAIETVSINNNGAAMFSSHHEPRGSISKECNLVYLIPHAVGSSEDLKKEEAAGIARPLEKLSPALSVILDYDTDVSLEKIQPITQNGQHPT

## Oc1ccc(C2CNCCc3c2cc(O)c(O)c3Cl)cc1 (centres unmarked) [fenoldopam]
[1]; renal proximal tubule cells from hypertensive subjects
  effect on GRK activity, assessed by the phosphorylation of rhodopsin: increased GRK activity
[1]; renal proximal tubule cells from normotensive subjects
  effect on GRK activity, assessed by the phosphorylation of rhodopsin: had no effect on GRK activity; also recorded: failed to increase GRK activity
[2]
  cAMP accumulation: increased cAMP accumulation to a greater extent in renal proximal tubule cells from normotensive than from hypertensive subjects
D1 receptor [3]
  quantity of serine-phosphorylated D1 receptor: increased the quantity of serine-phosphorylated D1 receptor
D1 receptor [4]
  selectivity of action on cAMP production: selective for the D1 receptor
